“And” between values parts separate entries of the source, which are not always exact repeats. Identical values can stand only once.
Test system: WM3248 melanoma cells, 486 antibodies
Experiment: Reverse phase protein arrays (RPPA)
Format: cell-based, Human
Details: 10 uM, single replicates
Excerpt: Pellets were snap frozen in liquid nitrogen and shipped to MD Anderson Cancer Center core RPPA facility for RPPA analysis (Table S5). Three biological replicates for each sample were generated.
Nomenclatures on the RPPA heatmaps: name_of_antibody.species_of_antibody.status_of_antibody. V - antibody validated; C - validation of antibody in progress; Q - antibody nonspecific; E – under evaluation; antibodies raised in M - mouse, G - goat, R - rabbit, or T - rat.

CN(C)c1cccc(Nc2cc(-c3ccccc3)nc(C3CCNCC3)n2)c1 [ARN22089, N1,N1-dimethyl-N3-(6-phenyl-2-(piperidin-4-yl)pyrimidin-4-yl)benzene-1,3-diamine]
RPPA PDHA1.R.V: 0.868 and 1.050 | RPPA PDHK1.R.C: 0.847 and 0.989 and 1.019 | RPPA PDK1.R.V: 1.007 and 1.121 and 1.006 | RPPA PDK1_pS241.R.V: 0.935 and 0.909 and 0.981 | RPPA PEA.15.R.V: 0.898 and 0.934 (2×) | RPPA PEA.15_pS116.R.V: 0.987 | RPPA PERK.R.V: 0.972 and 0.874 | RPPA PGM1.R.V: 1.007 and 0.983 and 1.004 | RPPA PHGDH.R.C: 0.889 and 1.016 | RPPA PHLPP.R.V: 1.515 and 0.856 and 0.877 | RPPA PI3K.p85.R.C: 1.113 and 1.033 | RPPA PI3K.p110.a.R.C: 0.828 and 0.921 and 0.963 | RPPA PI3K.p110.b.M.C: 0.981 and 0.937 | RPPA PKA.a.R.V: 1.016 and 0.756 and 0.860 | RPPA PKC.a.b.II_pT638_T641.R.V: 0.761 and 0.940 and 1.029 | RPPA PKC.b.II_pS660.R.V: 0.960 and 1.055 | RPPA PKCa.R.V: 1.576 and 0.715 and 0.684 | RPPA PKM2.R.C: 0.940 and 0.831 and 1.047 | RPPA PLC.gamma1.R.V: 1.302 and 0.921 and 1.027 | RPPA PLC.gamma1_pS1248.R.V: 1.246 and 0.852 and 0.899 | RPPA PLC.gamma2_pY759.R.V: 1.055 and 1.008 and 1.052 | RPPA PLK1.R.C: 1.052 and 0.570 | RPPA PMS2.R.V: 1.013 and 1.061 and 1.035 | RPPA PR.R.V: 1.051 and 1.057 and 1.083 | RPPA PRAS40.M.C: 1.053 and 1.125 and 0.970 | RPPA PRAS40_pT246.R.V: 0.997 and 0.945 and 0.929 | RPPA PRC1_pT481.R.C: 1.013 | RPPA PREX1.R.V: 0.847 and 0.880 and 1.018 | RPPA PTEN.R.V: 0.967 and 0.919 | RPPA PTPN12.R.V: 0.922 and 0.923 | RPPA PYGB.R.V: 1.000 and 1.018 | RPPA PYGM.M.C: 0.933 and 0.899 and 1.244 | RPPA Patched.R.C: 0.891 and 1.022 and 1.001 | RPPA Paxillin.R.C: 0.651 and 0.874 and 0.967 | RPPA Pdcd4.R.C: 1.032 and 0.964 and 0.935 | RPPA Porin.M.V: 0.986 and 1.054 and 1.019 | RPPA Puma.R.C: 1.032 and 0.898 and 0.973 | RPPA Pyk2_pY402.R.C: 0.958 and 0.968 and 0.955 | RPPA RBM15.R.V: 0.860 and 0.890 and 0.867 | RPPA RIP3.R.C: 0.858 and 0.945 | RPPA RIP.R.C: 0.855 and 1.003 | RPPA RPA32.R.V: 1.116 and 1.009 and 0.985 | RPPA RPA32_pS4_S8.R.C: 1.499 and 0.874 and 0.876 | RPPA RRM1.R.C: 0.796 | RPPA RRM2.R.C: 0.716 and 0.950 and 1.085 | RPPA RSK1.R.V: 1.235 and 0.841 | RPPA RSK.R.C: 1.016 and 0.831 and 0.880 | RPPA Rab11.R.C: 0.965 and 1.012 and 0.993 | RPPA Rab25.R.V: 0.970 and 0.991 and 0.975 | RPPA Rad17_pS645.R.V: 1.158 | RPPA Rad23A.R.C: 0.785 and 0.923 and 1.052 | RPPA Rad50.R.V: 1.047 and 1.001 and 0.925 | RPPA Rad51.R.C: 1.141 | RPPA Raptor.R.V: 0.898 and 0.967 and 0.952 | RPPA Rb.M.Q: 1.031 | RPPA Rb_pS807_S811.R.V: 0.993 and 0.916 and 0.946 | RPPA Rheb.M.C: 1.005 | RPPA Rictor.R.C: 0.984 and 0.977 and 0.904 | RPPA Rictor_pT1135.R.V: 1.006 and 1.049 and 1.026 | RPPA S6.M.V: 1.029 and 0.890 and 0.873 | RPPA S6_pS235_S236.R.V: 0.665 and 0.702 and 0.771 | RPPA S6_pS240_S244.R.V: 1.130 and 0.761 and 0.978 | RPPA SCD.M.V: 0.998 and 1.016 | RPPA SDHA.R.V: 0.885 and 1.085 and 0.936 | RPPA SF2.R.V: 0.975 and 1.048 and 0.992 | RPPA SFRP1.R.V: 0.871 and 0.955 | RPPA SGK1.R.V: 1.123 and 0.868 | RPPA SGK3.R.V: 0.999 and 1.114 and 0.994 | RPPA SHP2.R.V: 1.022 and 1.001 and 0.989 | RPPA SHP.2_pY542.R.C: 0.948 and 0.890 and 0.849 | RPPA SIRPαR.V: 1.018 and 0.987 and 1.021 | RPPA SLC1A5.R.C: 0.918 and 0.893 and 1.114 | RPPA SOD1.M.V: 1.011 and 1.084 and 0.999 | RPPA SOD2.R.V: 1.111 and 1.200 and 1.033 | RPPA SOX7.R.V: 1.014 and 0.995 | RPPA STING.R.V: 0.837 and 0.985 and 0.890 | RPPA Shc_pY317.R.C: 0.828 and 3.472 and 1.241 | RPPA Slfn11.G.C: 0.855 and 0.895 | RPPA Smac.M.Q: 0.941 and 1.118 and 0.934 | RPPA Smad1.R.V: 0.926 and 1.050 | RPPA Smad3.R.V: 0.971 and 0.982 (2×) | RPPA Smad4.R.V: 1.125 and 1.111 and 0.988 | RPPA Snail.M.Q: 0.848 and 1.076 and 1.006 | RPPA Sox2.R.V: 0.994 and 0.995 and 0.973 | RPPA Sox17.R.V: 1.081 and 0.902 | RPPA Src.M.V: 0.986 and 1.228 and 1.023 | RPPA Src_pY416.R.V: 1.112 and 0.914 | RPPA Src_pY527.R.V: 1.187 and 0.891 and 0.646 | RPPA Stat1_pY701.R.V: 1.116 and 1.000 and 0.989 | RPPA Stat3.R.C: 0.928 and 0.967 and 1.021 | RPPA Stat3_pY705.R.C: 1.145 and 0.998 and 0.863 | RPPA Stat5a.R.V: 1.136 and 0.906 and 0.832 | RPPA Stathmin.1.R.V: 0.796 and 1.056 and 1.053 | RPPA Syk.M.V: 0.989 and 1.109 and 1.102 | RPPA Synaptophysin.R.C: 1.199 and 0.991 | RPPA TAZ.R.V: 0.707 and 1.122 and 1.046 | RPPA TEAD.R.C: 0.724 and 1.098 and 1.080 | RPPA TFAM.R.V: 0.916 and 0.953 and 0.872 | RPPA TFRC.R.V: 0.933 and 0.837 and 1.007 | RPPA TIGAR.R.V: 1.010 and 0.954 and 0.970 | RPPA TRAP1.M.V: 0.985 | RPPA TRIM24.R.C: 1.099 and 1.139 and 0.970 | RPPA TRIM25.R.C: 0.787 and 0.889 and 0.933 | RPPA TRIP13.R.V: 1.107 and 0.967 and 1.005 | RPPA Tau.M.C: 1.121 and 1.140 | RPPA Transglutaminase.M.V: 0.953 and 1.132 and 1.561 | RPPA level HLA.DQA1.R.V: 0.942 and 1.249 and 0.908 | RPPA level HLA.DR.DP.DQ.DX.R.C: 0.965 and 0.939 | RPPA level HMHA1.R.V: 0.904 and 1.030 and 0.992 | RPPA level HNRNPK.R.V: 1.000 and 1.157 and 1.048 | RPPA level HSP27.M.C: 1.035 and 0.965 | RPPA level HSP27_pS82.R.V: 0.973 and 1.006 and 0.985 | RPPA level HSP60.R.V: 0.817 and 0.961 | RPPA level HSP70.R.C: 0.863 and 0.990 and 0.973 | RPPA level Hexokinase.I.R.C: 1.158 and 0.954 | RPPA level Hexokinase.II.R.V: 1.125 and 0.921 and 0.919 | RPPA level Hif.1αR.C: 1.247 and 1.014 and 0.671 | RPPA level Histone.H3.R.V: 0.930 and 0.956 and 0.776 | RPPA level Histone.H3_pS10.R.V: 1.200 and 0.894 and 1.027 | RPPA level IDO.R.C: 0.882 and 1.060 | RPPA level IGF1R_pY1135_Y1136.R.V: 0.904 and 0.968 and 0.956 | RPPA level IGFBP2.R.V: 0.540 and 0.765 | RPPA level IGFBP3.M.V: 0.727 and 1.079 and 1.122 | RPPA level IGFRb.R.C: 0.931 and 1.005 and 0.850 | RPPA level IL.6.R.C: 0.856 and 0.994 and 1.019 | RPPA level IMP3.R.C: 1.033 and 1.014 and 0.956 | RPPA level INPP4b.R.C: 0.980 and 0.827 | RPPA level IR.b.R.C: 0.942 and 1.158 and 1.047 | RPPA level IRF.1.R.V: 0.733 and 0.989 and 0.863 | RPPA level IRF.3.R.V: 1.005 and 1.049 and 1.057 | RPPA level IRS1.R.V: 0.956 and 0.975 and 0.990 | RPPA level IRS2.R.C: 1.250 and 0.922 and 0.822 | RPPA level JAB1.M.C: 0.937 and 1.033 | RPPA level JNK2.R.V: 0.765 and 3.367 and 1.426 | RPPA level JNK_pT183_Y185.R.C: 0.982 and 0.932 and 1.030 | RPPA level Jagged1.R.V: 0.877 and 1.048 | RPPA level Jak2.R.V: 0.931 (2×) and 1.019 | RPPA level KAP1.R.V: 1.035 and 0.844 and 0.861 | RPPA level KEAP1.R.V: 1.174 and 0.839 | RPPA level LAD1.R.V: 0.772 and 1.056 and 1.078 | RPPA level LC3A.B.R.C: 1.052 and 0.957 and 0.853 | RPPA level LCN2.R.V: 2.061 and 0.840 and 0.854 | RPPA level LDHA.R.C: 0.770 and 1.150 | RPPA level LRP6_pS1490.R.V: 0.906 and 0.988 and 0.894 | RPPA level Lasu1.R.V: 1.033 and 1.132 and 1.052 | RPPA level Lck.R.V: 0.988 and 0.991 and 0.942 | RPPA level Lyn.R.V: 1.113 and 1.221 and 0.942 | RPPA level MACC1.R.V: 1.081 and 1.061 and 1.005 | RPPA level MAPK_pT202_Y204.R.C: 0.770 and 0.851 and 1.246 | RPPA level MCT4.R.V: 0.673 and 0.768 and 1.020 | RPPA level MDM2_pS166.R.V: 1.142 and 0.902 | RPPA level MEK1.R.V: 2.774 and 0.771 and 0.759 | RPPA level MEK1_pS217_S221.R.V: 1.065 and 0.907 and 1.005 | RPPA level MEK2.R.V: 0.928 and 1.010 and 0.996 | RPPA level MERIT40.R.C: 0.985 | RPPA level MERIT40_pS29.R.V: 0.918 and 1.049 | RPPA level METTL3.R.V: 1.128 and 1.097 and 0.930 | RPPA level MIF.R.C: 1.023 and 1.117 and 1.048 | RPPA level MIG6.R.V: 0.921 and 1.139 and 1.007 | RPPA level MITF.R.V: 1.105 and 1.065 and 0.952 | RPPA level MLH1.M.V: 1.000 and 0.967 | RPPA level MLKL.R.V: 0.819 and 0.881 and 1.048 | RPPA level MMP2.R.V: 1.026 and 0.968 and 0.958
